Read-outs that look alike come from different tables or passages of the source.
Tests used:
Toledo cell = assay: Anti-proliferation assay (MTS), Toledo cells; format: cell-based, human; settings: for IC50 / Estimated IC25: single drug treatment, 96 hours post-treatment; for IC50: read-out: Estimated IC50
Protocol: (§1) Three human Lymphoma cell lines Toledo, MC116 and HT were purchased from the Bioresource Collection and Research Center (BCRC, Taiwan). All cells were incubated in a humidified atmosphere containing 5% C02 at 37° C.
(§2) CAL-101, also known as Idelalisib, is a PI3K-delta inhibitor with potential immunomodulating and antineoplastic activities. Anticancer activity of the combination of Compound A and CAL-101 on three human Lymphoma cell lines (Toledo, MC116, HT) was assessed using in vitro cell proliferation assay. Cell proliferation of drug-treated human cancer cells was determined at 96 hours post-treatment using the MTS (Promega) colorimetric assay.
(§3) Corrected absorbance values were obtained by subtracting the average 490 nm absorbance of the control wells (medium only, no cell) from all other absorbance values. Percentage inhibition of cell growth for compound treatment was calculated using this formula: […]
(§4) The sigmoidal dose-response curve is generated by fitting the percentage inhibition value as a function of logarithm of compound concentrations using GraphPad Prism software. IC50 values are defined as the concentration needed for a 50% inhibition of cell growth. […] All data represent the results of triplicate experiments.
(§5) Estimated IC50 and IC25 values were calculated based on non-linear regression of the dose-response curves of the cell proliferation ratio (%) as a function of logarithm of drug concentrations in single treatments.

MC116 cell = assay: Anti-proliferation assay (MTS), MC116 cells; format: cell-based, human
Protocol: as §1, §2, §3, §4, §5

HT cell = assay: Anti-proliferation assay (MTS), HT cells; format: cell-based, human
Protocol: as §1, §2, §3, §4, §5

[1] = system: HBCx-39 (BRCA2 wild type) cancer cell line; assay: Chemokine expression in BRCA2 wild type cancer cells; format: cell-based
Text: (§6) FIG. 8A-8C show effects of Compound A treatment on chemokine expressions in BRCA2 wild type (WT) and mutant (Mut) PDX-derived breast cancer cells.
(§7) Compound A was applied to both HBCx-39 (BRCA2 wild type) and HBCx-17 (BRCA2 mutant) cancer cell lines in vitro. HBCx-17 is a homologous recombination deficiency tumor cell line having BRCA2 mutation. […] CCL21 and CXCL9 mRNA expression in cancer cells having BRCA2 mutant compared to wild type cancer cells.

[2] = system: BRCA1 positive (UWB1.289) human ovarian cancer cell line; assay: CellTiter-Glo cell viability assay, BRCA1 positive ovarian cancer cells; format: cell-based; settings: for Cell toxicity of cytokine by itself: 0-5 ng/mL, BRCA1 positive ovarian cancer cell line
Protocol: (§8) BRCA1 negative (UWB1.289-2945) and BRCA1 positive (UWB1.289) human ovarian cancer cell lines were purchased from the American Type Culture Collection (ATCC). Those cell were incubated in a humidified atmosphere containing 5% C02 at 37° C.
(§9) The anticancer activity of Compound A on BRCA1 negative and BRCA1 positive human ovarian cancer cell lines were also assessed using in vitro cell proliferation assay. Cell proliferation of drug-treated human cancer cell was determined at 72 hours post-treatment using the CellTiter-Glo® Luminescent cell viability assay (Promega). IC50 values are defined as the concentration needed for a 50% inhibition of cell growth and were calculated in GraphPad. The anti-proliferative effects of Compound A alone and in combination with cytokines on these two cell lines are shown in FIGS. 4-6.
(§10) Percentage inhibition of cell growth for compound treatment was calculated using this formula: […]
(§11) The data were processed using built-in excel-macro. Cell viability/proliferation was expressed as […] with respect to the average signal from the untreated control wells of the respective plate. Out-liar values (of the triplicate) were rejected during QC. The processed data were plotted using Graphpad software. Statistical analysis was done using Excel (Microsoft) and Pair-wise comparison of two groups was made using the student's t test. All data represent the results of triplicate experiments.
(§12) Here, two types of cytokines, TNF-α and IFN-γ, were used (0, 0.008, 0.04, 0.2, 1, 5 ng/mL) in response to together with Compound A.

[3] = system: HBCx-17 (BRCA2 mutant) cancer cell line; assay: Chemokine expression in BRCA2 mutant cancer cells; format: cell-based
Text: as §6, §7

[4] = system: BRCA1 negative (UWB1.289-2945) human ovarian cancer cell line; assay: CellTiter-Glo cell viability assay, BRCA1 negative ovarian cancer cells; format: cell-based; settings: for Cell toxicity of cytokine by itself: 0-5 ng/mL, BRCA1 negative ovarian cancer cell line; for Effect on cell toxicity in the presence of Compound A: cytokine 0-5 ng/mL together with Compound A
Protocol: as §8, §9, §10, §11, §12

[5] = Homo sapiens, single drug treatment, 96 hours post-treatment, read-out: Estimated IC50
[6] = Homo sapiens, single treatment, read-out: IC50
[7] = single drug treatment, 96 hours post-treatment

Compound | IC50 (Toledo cell; Homo sapiens) [nM] | Estimated IC25 (Toledo cell) [nM] | IC50 (MC116 cell; [5]) [nM] | Estimated IC25 (MC116 cell; [7]) [nM] | IC50 (HT cell; [5]) [nM] | Estimated IC25 (HT cell; [7]) [nM] | Cell toxicity of cytokine by itself [2] | Cell toxicity of cytokine by itself [4] | Effect on cell toxicity in the presence of Compound A ([4]; BRCA1 negative cells) | other results
CC[C@H](Nc1ncnc2[nH]cnc12)c1nc2cccc(F)c2c(=O)n1-c1ccccc1 [CAL-101] | 76 | 25.3 ± 14.9 | 118000 ± 29600 | 39286.7 ± 9871.2 | 10100 ± 1380 | 3357.3 ± 461.0 |  |  |  | inhibition at 0.4 µM (Toledo cell; Homo sapiens, IC50 conc. used: Compound A 50 nM, CAL-101 400 nM): 49.6 ± 1.7%; inhibition at 17.5 µM (MC116 cell; Homo sapiens, IC25 conc. used: Compound A 150 nM, CAL-101 17500 nM): 9.2 ± 3.4%; inhibition at 35 µM (MC116 cell; Homo sapiens, IC50 conc. used: Compound A 450 nM, CAL-101 35000 nM): 70.4 ± 3.1%; IC50 (MC116 cell; [6]): > 10000 nM; inhibition at 2.6667 µM (HT cell; Homo sapiens, IC25 conc. used: Compound A 133.3 nM, CAL-101 2666.7 nM): 19.7 ± 4.3%; inhibition at 8 µM (HT cell; Homo sapiens, IC50 conc. used: Compound A 400 nM, CAL-101 8000 nM): 37.6 ± 1.5%; IC50 (HT cell; [6]): > 10000 nM
Cc1cnc(CNC(=O)c2c(=O)c3ccc(N4CCCN(C)CC4)nc3n3c2sc2ccccc23)cn1 [Compound A, 2-(4-Methyl-[1,4]diazepan-1-yl)-5-oxo-5H-7-thia-1,11b-diaza-benzo[c]fluorene-6-carboxylic acid (5-methyl-pyrazin-2-ylmethyl)-amide] | 45.9 | 15.3 ± 0.8 | 723 | 241.0 ± 6.5 | 526 | 175.1 ± 6.6 |  |  |  | Production of chemokines in tumor cells [1]: capable of inducing the production of several important chemokines; Maximum toxicity ([2]; BRCA1 positive UWB1.289, highest concentration (100 nM), 72 hours): ≤ 40%; CCL9, CCL21 and CXCL9 mRNA expression ([3]; BRCA2 mutant compared to wild type cancer cells): increased more; Production of chemokines in tumor cells ([3]; HBCx-17 BRCA2 mutant): capable of inducing the production of several important chemokines; Inhibition (%) (Toledo cell; IC50 conc. used: Compound A 50 nM, CAL-101 400 nM): 25.6 ± 2.5%; IC50 ([4]; Homo sapiens, BRCA1 negative cells, 72 hours post-treatment): 2.34 to 3.78 nM; Inhibition (%) (MC116 cell; IC25 conc. used: Compound A 150 nM, CAL-101 17500 nM): 44.3 ± 5.5%; Inhibition (%) (MC116 cell; IC50 conc. used: Compound A 450 nM, CAL-101 35000 nM): 83.4 ± 1.2%; Inhibition (%) (HT cell; IC25 conc. used: Compound A 133.3 nM, CAL-101 2666.7 nM): 15.2 ± 0.9%; Inhibition (%) (HT cell; IC50 conc. used: Compound A 400 nM, CAL-101 8000 nM): 41.2 ± 1.9%
IFN-γ: cytokine, Interferon gamma |  |  |  |  |  |  | minimal, but increasing trend of cell toxicity with increasing dose | minimal, but increasing trend of cell toxicity with increasing dose | additive effect | 
TNF-α |  |  |  |  |  |  | minimal, but increasing trend of cell toxicity with increasing dose | minimal, but increasing trend of cell toxicity with increasing dose | additive effect | 

Reference: patent US11229654B2, “Combination therapy of tetracyclic quinolone analogs for treating cancer” (Senhwa Biosciences, Inc., priority 2015, dated 2022)
